Measured values from BindingDB's records for doi:10.1021/jm801507v (AstraZeneca, 2009).

Tests used:
[1] = target: T1, Diacylglycerol O-acyltransferase 1 (Homo sapiens, UniProt O75907); experiment: DGAT Enzyme Inhibition Assay; details: pH 7.4; 22 °C
T1 sequence (O75907 whole entry): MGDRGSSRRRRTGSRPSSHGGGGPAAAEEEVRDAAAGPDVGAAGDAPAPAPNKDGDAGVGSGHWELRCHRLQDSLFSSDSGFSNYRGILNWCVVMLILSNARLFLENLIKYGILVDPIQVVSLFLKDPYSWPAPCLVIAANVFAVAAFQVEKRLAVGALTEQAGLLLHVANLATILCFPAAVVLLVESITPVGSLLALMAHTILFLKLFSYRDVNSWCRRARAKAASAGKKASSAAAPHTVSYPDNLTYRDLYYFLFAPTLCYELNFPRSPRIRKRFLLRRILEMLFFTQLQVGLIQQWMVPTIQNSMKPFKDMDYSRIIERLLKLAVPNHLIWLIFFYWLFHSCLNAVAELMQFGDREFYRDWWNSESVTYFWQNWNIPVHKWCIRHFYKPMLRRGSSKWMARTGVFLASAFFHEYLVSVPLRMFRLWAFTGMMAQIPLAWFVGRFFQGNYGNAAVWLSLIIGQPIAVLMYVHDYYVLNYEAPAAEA
Experimental: The assay mixture contains test compound, membrane protein, and 1,2 dioleoyl-sn-glycerol in a 96-deep well plate. The reaction was started by adding substrate [14C]oleoyl coenzyme A and incubated. After the reaction was stopped, radioactive triolein product was separated into the organic heptane phase. DGAT activity was quantified by counting aliquots of the upper heptane layer by liquid scintillography.

[2] = target: T2, Sterol O-acyltransferase 1 (Homo sapiens, UniProt P35610); experiment: ACAT-1 Enzyme Inhibition Assay; details: pH 7.4; 37 °C
T2 sequence (P35610 whole entry): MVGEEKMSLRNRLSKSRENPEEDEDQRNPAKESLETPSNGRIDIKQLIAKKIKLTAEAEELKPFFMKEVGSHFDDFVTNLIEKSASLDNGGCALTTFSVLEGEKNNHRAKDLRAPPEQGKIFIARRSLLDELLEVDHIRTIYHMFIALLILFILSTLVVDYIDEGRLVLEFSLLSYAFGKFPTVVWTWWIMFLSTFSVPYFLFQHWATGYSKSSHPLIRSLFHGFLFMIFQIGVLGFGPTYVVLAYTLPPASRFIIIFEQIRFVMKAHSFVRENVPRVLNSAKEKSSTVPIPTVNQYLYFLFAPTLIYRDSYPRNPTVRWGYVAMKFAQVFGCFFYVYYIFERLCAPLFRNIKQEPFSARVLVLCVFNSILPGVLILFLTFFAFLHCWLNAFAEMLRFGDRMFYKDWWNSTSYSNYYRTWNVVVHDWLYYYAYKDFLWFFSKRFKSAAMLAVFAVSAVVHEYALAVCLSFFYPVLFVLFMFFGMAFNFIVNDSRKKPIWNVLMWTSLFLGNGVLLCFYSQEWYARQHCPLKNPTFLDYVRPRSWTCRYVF
Experimental: The reaction was started by adding substrate [14C]oleoyl coenzyme A and incubated. After the reaction was stopped, radioactive cholesteryl oleate product was separated into the organic heptane phase. ACAT-1 activity was quantified by counting aliquots of the upper heptane layer by liquid scintillography.

- IC50 [1]: 0.069 µM
- IC50 [2]: 28 µM
SMILES: CC1(C)Oc2ncnc(N)c2N=C1c1ccc(C23CCCC(CC(=O)O)(CC2)CC3)cc1 [2-[5-(4-{4-amino-7,7-dimethyl-7H-pyrimido[4,5-b][1,4]oxazin-6-yl}phenyl)bicyclo[3.2.2]nonan-1-yl]acetic acid]
